Drawing on patent US9884048B2, “ERK inhibitors” (Merck Sharp & Dohme Corp., priority 2014, dated 2018), this text covers IC50 for 13 molecules.

Sequence of phosphorylated active hERK2 enzyme (P28482 whole entry): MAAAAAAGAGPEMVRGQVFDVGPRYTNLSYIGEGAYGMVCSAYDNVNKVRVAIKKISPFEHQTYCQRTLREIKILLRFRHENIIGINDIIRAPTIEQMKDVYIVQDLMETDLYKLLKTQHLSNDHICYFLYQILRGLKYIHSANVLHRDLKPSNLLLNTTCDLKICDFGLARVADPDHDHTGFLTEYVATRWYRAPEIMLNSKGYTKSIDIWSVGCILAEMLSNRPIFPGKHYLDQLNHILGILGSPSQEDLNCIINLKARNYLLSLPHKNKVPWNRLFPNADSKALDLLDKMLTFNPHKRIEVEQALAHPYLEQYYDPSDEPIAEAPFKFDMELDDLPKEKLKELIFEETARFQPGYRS

This assay has as its target phosphorylated active hERK2 enzyme (Homo sapiens (Human), UniProt P28482). Conditions: read-out: ERK2 IC50; IMAP-FP assay; 0.5 nM hERK2, 30 μM ATP; 10 point titration, 3 μM starting concentration.
As usually defined, the IC50 is the concentration that gives 50% inhibition. As for `Cc1cc(-n2ncc3cc(NC(=O)N[C@@H]4CN(C)C[C@H]4c4ccc(C)s4)ncc32)ccn1` [Example 124, 1-[(3S,4R)-1-methyl-4-(5-methylthiophen-2-yl)pyrrolidin-3-yl]-3-[1-(2-methylpyridin-4-yl)-1H-pyrazolo[3,4-c]pyridin-5-yl)urea], the IC50 was determined as 1.01 nM.

`Cc1cc(-n2ncc3cc(NC(=O)NCc4cnn(-c5ccc(F)cc5)c4)ncc32)ccn1` [Example 60, 1-{[1-(4-fluorophenyl)-1H-pyrazol-4-yl]methyl}-3-[1-(2-methylpyridin-4-yl)-1H-pyrazolo[3,4-c]pyridin-5-yl]urea]: the IC50 came out at 1630 nM.

`C[C@@H](NC(=O)Nc1cc2cnn(-c3ccc(F)cc3)c2c(CN2CCOCC2)n1)c1ccccc1` [Example 242, 1-[1-(4-fluorophenyl)-7-(morpholin-4-ylmethyl)-1H-pyrazolo[3,4-c]pyridin-5-yl]-3-[(1R)-1-phenylethyl]urea]: the IC50 was 2240 nM.

For the molecule `CCNC(=O)OCc1nc(NC(=O)N[C@H](C)c2ccccc2)cc2cnn(-c3ccc(F)cc3)c12` [Example 327, [1-(4-Fluorophenyl)-5-({[(1R)-1-phenylethyl]carbamoyl}amino)-1H-pyrazolo[3,4-c]pyridin-7-yl]methyl ethylcarbamate], the IC50 was found to be 116 nM.

`Cc1cc(-n2ncc3cc(NC(=O)NCC4(c5ccccc5)CCOC4)ncc32)ccn1` (stereo not shown) [Example 69, 1-[1-(2-methylpyridin-4-yl)-1H-pyrazolo[3,4-c]pyridin-5-yl]-3-[(3-phenyltetrahydrofuran-3-yl)methyl]urea]: the 50% inhibitory concentration (IC50) amounted to 17.7 nM.

With `Cc1cc(-n2ncc3cc(NC(=O)NC4CCC(c5ccccc5)C4)ncc32)ccn1` (stereo not shown) [Example 178, 1-[1-(2-methylpyridin-4-yl)-1H-pyrazolo[3,4-c]pyridin-5-yl]-3-(3-phenylcyclopentyl)urea], the IC50 amounted to 37.1 nM.

Regarding `CCO[C@H]1CN(Cc2c(F)cccc2F)C[C@@H]1NC(=O)Nc1cc2cnn(-c3ccnc(C)c3)c2cn1` [Example 278, 1-[(3S,4S)-1-(2,6-difluorobenzyl)-4-ethoxypyrrolidin-3-yl]-3-[1-(2-methylpyridin-4-yl)-1H-pyrazolo[3,4-c]pyridin-5-yl]urea], the IC50 came to 45.3 nM.

As for `Cc1cc(-n2ncc3cc(NC(=O)NCc4nonc4C)ncc32)ccn1` [Example 118, 1-[(4-methyl-1,2,5-oxadiazol-3-yl)methyl]-3-[1-(2-methylpyridin-4-yl)-1H-pyrazolo[3,4-c]pyridin-5-yl]urea], the IC50 turned out to be 5.38 nM.

`Cc1cc(-n2ncc3cc(NC(=O)N[C@@H]4CN(C)C[C@H]4c4ccccc4)ncc32)ccn1` [Example 181, 1-((3S,4R)1-methyl-4-phenyl-pyrrolidin-3-yl)-3-[1-(2-methyl-pyridin-4-yl)-1H-pyrazolo[3,4-c]pyridin-5-yl]urea]: the IC50 was 0.983 nM.

As to `Cc1cc(-n2ncc3cc(NC(=O)N[C@H]4CN(C)C[C@@H]4c4sccc4C)ncc32)ccn1` [Example 113, 1-[(3R,4S)-1-methyl-4-(3-methylthiophen-2-yl)pyrrolidin-3-yl]-3-[1-(2-methylpyridin-4-yl)-1H-pyrazolo[3,4-c]pyridin-5-yl)urea], the half-maximal inhibitory concentration (IC50) worked out at 7.11 nM.

For `Cc1cc(-n2ncc3cc(NC(=O)NC4CC(c5ccccc5)CN(C)C4)ncc32)ccn1` (stereo not shown) [Example 290, 1-(1-methyl-5-phenylpiperidin-3-yl)-3-[1-(2-methylpyridin-4-yl)-1H-pyrazolo[3,4-c]pyridin-5-yl]urea], the IC50 came out at 17.8 nM.

As to `Cc1cc(-n2ncc3cc(NC(=O)N[C@H](C)c4ccccc4)nc(COCCN4CCOCC4)c32)ccn1` [Example 249, 1-{1-(2-methylpyridin-4-yl)-7-[(2-morpholin-4-ylethoxy)methyl]-1H-pyrazolo[3,4-c]pyridin-5-yl}-3-[(1R)-1-phenylethyl]urea], the IC50 came to 127 nM.

Turning to `Cc1cc(-n2ncc3cc(NC(=O)N[C@H](C)c4cccc(Cl)c4)ncc32)ccn1` [Example 43, 1-[(1R)-1-(3-chlorophenyl)ethyl]-3-[1-(2-methylpyridin-4-yl)-1H-pyrazolo[3,4-c]pyridin-5-yl]urea], the IC50 is 0.952 nM.
